Reference: publication PMC6161897, “The novel NADPH oxidase 4 selective inhibitor GLX7013114 counteracts human islet cell death in vitro” (PLoS ONE, 2018)

What was measured:
caspase 3 = assay: Cleaved caspase 3 immunofluorescence in human islets; assay type: cell-based; settings: palmitate + high glucose 24h, same inhibitor concentrations as Fig 3
Nox2 = settings: cited from earlier work
XO = settings: cited from earlier work
all Nox enzymes = settings: cited from earlier work
[1] = cited from earlier work
human islet = settings: cited from earlier work
human islet cells [2] = assay: Human islet cell viability (PI/bisbenzimide ratio); assay type: cell-based; settings: for human islet cell death, cytokines: IL-1β + IFN-γ 20 ng/ml each; for human islet cell death, cytokines / human islet cell death, high glucose + palmitate: 48h, ML171 2 μM, Phox-I2 2 μM, GLX7013114 1 μM; for human islet cell death, high glucose + palmitate: palmitate 1.5 mM + 20 mM glucose
Method: […] Cell viability was measured by staining cells with propidium iodide (20 μg/ml) and bisbenzimide (5 μg/ml) for 20 min at 37°C. The medium was replaced with PBS and the red and blue fluorescence was detected using a Nikon Eclipse fluorescence TE2000-U microscope (Nikon Instruments, Amsterdam, the Netherlands). The ratio of red to blue was taken as a relative measure of cell death (necrosis and late apoptosis) and was quantified using the Image J software (National Institutes of Health).

EndoC-βH1 cells = assay: EndoC-βH1 cell viability (PI, flow cytometry); assay type: cell-based, human; settings: inhibitor 0.2, 0.5 or 1.0 μM; for cell death rates in EndoC-βH1 cells exposed to cytokines: 2-day incubation; for cell death rates in EndoC-βH1 cells exposed to high glucose + palmitate: 24h incubation
Method: […] Cells were then vital stained with 10 μg/ml propidium iodide (PI) for 10 min at 37°C. Free-floating cells and cells attached to the culture dish were washed separately with PBS, pooled and examined by flow cytometry using a FACSCalibur (BD Biosciences, Franklin Lakes, NJ, USA). In each experimental group 10000 cells were examined and gated by PI intensity and FSC signal. The percentage of dead cells was analyzed using […] software (BD Biosciences).

human islet cells [3] = assay: ROS production in human islets (DCF fluorescence); assay type: cell-based; settings: palmitate 1.5 mM + 20 mM glucose 24h, inhibitor during last 3h: DPI 0.2 μM, Dapsone 10 μM, GLX351322 10 μM, GLX481372 6 μM
Nox4 = target: T1, Nox4 (Homo sapiens, UniProt Q9NPH5); settings: cited from earlier work
T1 construct: host or cells: HEK 293 (CJ, constitutive) and T-REx-293 (tetracycline-inducible)
T1 sequence (Q9NPH5 1-578): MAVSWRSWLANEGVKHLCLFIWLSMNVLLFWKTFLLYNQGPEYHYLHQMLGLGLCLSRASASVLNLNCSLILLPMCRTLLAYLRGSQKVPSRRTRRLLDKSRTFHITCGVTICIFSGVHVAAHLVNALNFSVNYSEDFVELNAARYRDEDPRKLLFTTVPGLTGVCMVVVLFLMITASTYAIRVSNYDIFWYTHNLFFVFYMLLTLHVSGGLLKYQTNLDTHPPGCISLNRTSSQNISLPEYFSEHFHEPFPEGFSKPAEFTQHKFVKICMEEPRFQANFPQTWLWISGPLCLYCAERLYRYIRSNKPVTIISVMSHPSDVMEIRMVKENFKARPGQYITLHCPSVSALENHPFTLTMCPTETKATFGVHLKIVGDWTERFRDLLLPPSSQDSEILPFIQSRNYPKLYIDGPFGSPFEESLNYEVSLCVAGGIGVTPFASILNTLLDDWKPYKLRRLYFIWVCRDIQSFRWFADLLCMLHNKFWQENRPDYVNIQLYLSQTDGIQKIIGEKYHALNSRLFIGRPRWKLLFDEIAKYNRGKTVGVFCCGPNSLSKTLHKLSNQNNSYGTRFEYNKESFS
T1 sequence (P13498 2-195 partner limits assumed): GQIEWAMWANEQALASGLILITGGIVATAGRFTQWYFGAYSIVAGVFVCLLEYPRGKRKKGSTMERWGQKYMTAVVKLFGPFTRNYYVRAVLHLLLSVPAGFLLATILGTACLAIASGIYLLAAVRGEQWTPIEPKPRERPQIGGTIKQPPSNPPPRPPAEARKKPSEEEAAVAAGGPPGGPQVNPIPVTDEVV

DUOX1 = test system: DUOX1; design: method as in PMID 24053146; settings: cited from earlier work

SMILES	activation of caspase 3 in human islets (caspase 3)	IC50 (Nox2) [µM]	XO inhibition (XO)	human islet cell death, cytokines (human islet cells [2])	human islet cell death, high glucose + palmitate (human islet cells [2])	cell death rates in EndoC-βH1 cells exposed to cytokines (EndoC-βH1 cells)	cell death rates in EndoC-βH1 cells exposed to high glucose + palmitate (EndoC-βH1 cells)	other results
c1ccc2c(c1)[I+]c1ccccc1-2 [DPI, diphenyleneiodoniumchloride]	reduced activation of caspase 3	[…]	Yes	–	–	–	–	IC50 values for all Nox enzymes (all Nox enzymes): nM range
CCOC(=O)c1c(NC(=O)CN2CCN(C(=O)c3ccco3)CC2)sc2c1CCC2 [GLX351322]	reduced activation of caspase 3	40	Inactive	–	–	–	–	high-fat diet-induced glucose intolerance [1]: amelioration of high-fat diet-induced glucose intolerance; high glucose-induced inhibition of human islet insulin release and survival (human islet): protected against high glucose-induced inhibition of human islet insulin release and survival
CC(=O)c1ccc2c(c1)Nc1ccccc1S2 [ML171]	–	[…]	–	failed to reduce human islet cell death	failed to reduce human islet cell death	failed to affect cell death rates	failed to affect cell death rates	IC50 (XO; read-out: XO inhibition): 5.5 µM
O=[N+]([O-])c1cccc(C2Nc3ccc([N+](=O)[O-])cc3C3C=CCC32)c1 (stereo not shown) [Phox-I2]	–	1	–	failed to protect	partially protected	failed to affect cell death rates	failed to affect cell death rates	–
Nc1ccc(S(=O)(=O)c2ccc(N)cc2)cc1 [dapsone]	reduced activation of caspase 3	–	–	–	–	–	–	human islet ROS production (DCF/DAPI ratio) (human islet cells [3]): reduced human islet ROS production; human islet cell viability (PI and Bisbenzimide ratio) (human islet cells [2]; palmitate + high glucose 24h, inhibitor throughout: DPI 0.2 μM, Dapsone 10 μM, GLX351322 10 μM, GLX481372 6 μM): improved viability; inhibition of expression/activity of Nox4 (Nox4): μM concentrations; inhibition of expression/activity of DUOX1 (DUOX1): μM concentrations
